ChEMBL document CHEMBL5390263, “Direct evaluation of polarity of the ligand binding pocket in retinoid X receptor using a fluorescent solvatochromic agonist” (Bioorg Med Chem Lett, 2023)
Active and inactive are the calls of the source. No cut-off for these calls is given here.

Experiments:
[1] = biological target: T1, Retinoic acid receptor RXR-alpha (Homo sapiens) (UniProt P19793); experiment: Binding affinity to RXRalpha-LBD (unknown origin) assessed as fluorescence intensity by measuring maximum excitation wavelength from 382 to 440 nm at 5 to 20 uM in the presence of bexarotene by FRET assay; conditions: dose 5-20 µM
T1 sequence (whole entry): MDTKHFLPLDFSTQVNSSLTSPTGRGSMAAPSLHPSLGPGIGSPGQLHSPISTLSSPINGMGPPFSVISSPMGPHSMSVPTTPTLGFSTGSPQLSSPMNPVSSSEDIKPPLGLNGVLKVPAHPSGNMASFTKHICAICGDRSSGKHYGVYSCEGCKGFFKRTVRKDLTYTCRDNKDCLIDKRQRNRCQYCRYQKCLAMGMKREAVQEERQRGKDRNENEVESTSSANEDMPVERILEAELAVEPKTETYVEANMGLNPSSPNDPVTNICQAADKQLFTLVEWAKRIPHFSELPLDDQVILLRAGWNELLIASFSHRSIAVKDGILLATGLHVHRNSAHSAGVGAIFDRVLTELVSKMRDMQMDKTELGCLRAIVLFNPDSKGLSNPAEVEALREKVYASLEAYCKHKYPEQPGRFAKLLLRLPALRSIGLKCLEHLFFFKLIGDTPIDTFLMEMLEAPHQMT

[2] = biological target: T1, Retinoic acid receptor RXR-alpha (Homo sapiens); experiment: Binding affinity to RXR alpha-LBD (unknown origin) assessed as increase in fluorescence intensity up to 16 uM by FRET assay; conditions: filed as agonist
[3] = biological target: T1, Retinoic acid receptor RXR-alpha (Homo sapiens); experiment: Binding affinity to RXRalpha-LBD (unknown origin) assessed as increase in fluorescence intensity by measuring maximum excitation of 440 nm wavelength at 16 uM by FRET assay; conditions: filed as agonist
[4] = biological target: T1, Retinoic acid receptor RXR-alpha (Homo sapiens); experiment: Binding affinity to RXRalpha-LBD (unknown origin) assessed as increase in fluorescence intensity by measuring maximum excitation wavelength from 382 to 440 nm by FRET assay; conditions: filed as agonist, dose <= 16.0 µM
[5] = biological target: T2, Retinoic acid receptor RXR-alpha (Homo sapiens, UniProt P19793); experiment: Binding affinity to RXRalpha-LBD (unknown origin) assessed as dissociation constant by FRET assay
T2 sequence (P19793 whole entry): T1 sequence (whole entry)

[6] = biological target: T2, Retinoic acid receptor RXR-alpha; experiment: Binding affinity to RXRalpha-LBP (unknown origin) assessed as dissociation constant by FRET assay

Q: How did the Activity [1] turn out when `CCN(c1ccc2c(C(F)(F)F)cc(=O)n(CC(C)C)c2c1)c1ccc(C(=O)O)cn1` was run?
A: inactive

Q: What about the Activity [2] of the same compound?
A: Active

Q: What about the Activity [3] of the same compound?
A: Active

Q: And the Activity [4]?
A: Dose-Dependent Effect

Q: What about the Kd [5] of the same compound?
A: 6.3 µM

Q: What about the Kd [6] of the same compound?
A: 10.9 µM
